In paper PMC5452050 (ACS Omega, 2017):
Changes are numbered by the printed parent chain. ≈ marks a conversion by molar mass, not a printed value.

What was measured:
FLT3 (D835Y) = molecular target: T1, FLT3 (D835Y) (Homo sapiens, UniProt P36888, D835Y); experiment: Kd determination; format: binding
T1 sequence (P36888 27-993 D835Y): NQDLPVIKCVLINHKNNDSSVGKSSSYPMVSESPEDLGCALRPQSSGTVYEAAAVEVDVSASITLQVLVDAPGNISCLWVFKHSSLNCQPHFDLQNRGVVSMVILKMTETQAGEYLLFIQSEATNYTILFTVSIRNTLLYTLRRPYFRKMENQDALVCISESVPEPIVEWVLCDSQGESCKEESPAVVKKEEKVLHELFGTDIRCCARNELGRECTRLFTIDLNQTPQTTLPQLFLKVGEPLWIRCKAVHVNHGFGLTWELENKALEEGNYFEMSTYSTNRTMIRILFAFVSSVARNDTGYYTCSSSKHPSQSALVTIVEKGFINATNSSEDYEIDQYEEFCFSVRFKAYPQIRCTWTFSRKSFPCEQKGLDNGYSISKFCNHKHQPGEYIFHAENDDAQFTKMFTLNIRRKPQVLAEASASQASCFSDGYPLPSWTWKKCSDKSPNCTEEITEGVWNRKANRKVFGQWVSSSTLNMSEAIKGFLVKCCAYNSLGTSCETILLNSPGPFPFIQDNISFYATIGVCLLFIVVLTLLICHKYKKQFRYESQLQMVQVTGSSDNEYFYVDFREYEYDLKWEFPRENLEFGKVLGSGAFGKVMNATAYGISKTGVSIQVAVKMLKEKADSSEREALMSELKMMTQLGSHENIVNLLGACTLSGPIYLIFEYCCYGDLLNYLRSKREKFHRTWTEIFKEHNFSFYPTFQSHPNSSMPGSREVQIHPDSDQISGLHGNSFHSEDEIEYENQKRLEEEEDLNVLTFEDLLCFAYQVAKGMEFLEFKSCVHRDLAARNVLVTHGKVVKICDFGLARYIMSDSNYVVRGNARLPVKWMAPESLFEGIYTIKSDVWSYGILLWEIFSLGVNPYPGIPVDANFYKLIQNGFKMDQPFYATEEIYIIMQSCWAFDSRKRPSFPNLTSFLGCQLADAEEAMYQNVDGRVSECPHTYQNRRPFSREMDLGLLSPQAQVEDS

FLT3 (ITD) = molecular target: T2, FLT3 (ITD) (Homo sapiens, UniProt P36888, ITD); experiment: Kd determination; format: binding
T2 sequence (P36888 564-993): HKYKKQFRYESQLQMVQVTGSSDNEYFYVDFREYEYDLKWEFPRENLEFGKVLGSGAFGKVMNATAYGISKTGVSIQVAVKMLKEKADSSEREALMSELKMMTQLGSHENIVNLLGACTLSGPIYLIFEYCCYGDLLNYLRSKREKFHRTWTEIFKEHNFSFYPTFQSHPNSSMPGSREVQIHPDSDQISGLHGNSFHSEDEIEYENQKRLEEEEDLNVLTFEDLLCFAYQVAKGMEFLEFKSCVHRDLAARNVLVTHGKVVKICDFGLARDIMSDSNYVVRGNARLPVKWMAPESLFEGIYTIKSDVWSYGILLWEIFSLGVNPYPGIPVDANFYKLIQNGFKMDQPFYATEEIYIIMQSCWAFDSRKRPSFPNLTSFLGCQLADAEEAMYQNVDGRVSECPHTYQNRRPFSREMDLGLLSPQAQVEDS

FLT3 (ITD, F691L) = molecular target: T3, FLT3 (ITD, F691L) (Homo sapiens, UniProt P36888, F691L/ITD); experiment: Kd determination; format: binding
T3 sequence (P36888 564-993 F691L): T2 sequence (P36888 564-993) with F128L

FLT3 (N841I) = molecular target: T4, FLT3 (N841I) (Homo sapiens, UniProt P36888, N841I); experiment: Kd determination; format: binding
T4 sequence (P36888 27-993 N841I): T1 sequence (P36888 27-993 D835Y) with Y809D, N815I

Solubility = format: physicochemical; conditions: buffer, pH 7.4, aqueous buffer, kinetic from dmso stock
NEK10 = NEK10 (Homo sapiens, UniProt Q6ZWH5); experiment: Kd determination; format: binding
PIP5K1C = PIP5K1C (Homo sapiens, UniProt O60331); experiment: Kd determination; format: binding
Chain of PIP5K1C (O60331 whole entry): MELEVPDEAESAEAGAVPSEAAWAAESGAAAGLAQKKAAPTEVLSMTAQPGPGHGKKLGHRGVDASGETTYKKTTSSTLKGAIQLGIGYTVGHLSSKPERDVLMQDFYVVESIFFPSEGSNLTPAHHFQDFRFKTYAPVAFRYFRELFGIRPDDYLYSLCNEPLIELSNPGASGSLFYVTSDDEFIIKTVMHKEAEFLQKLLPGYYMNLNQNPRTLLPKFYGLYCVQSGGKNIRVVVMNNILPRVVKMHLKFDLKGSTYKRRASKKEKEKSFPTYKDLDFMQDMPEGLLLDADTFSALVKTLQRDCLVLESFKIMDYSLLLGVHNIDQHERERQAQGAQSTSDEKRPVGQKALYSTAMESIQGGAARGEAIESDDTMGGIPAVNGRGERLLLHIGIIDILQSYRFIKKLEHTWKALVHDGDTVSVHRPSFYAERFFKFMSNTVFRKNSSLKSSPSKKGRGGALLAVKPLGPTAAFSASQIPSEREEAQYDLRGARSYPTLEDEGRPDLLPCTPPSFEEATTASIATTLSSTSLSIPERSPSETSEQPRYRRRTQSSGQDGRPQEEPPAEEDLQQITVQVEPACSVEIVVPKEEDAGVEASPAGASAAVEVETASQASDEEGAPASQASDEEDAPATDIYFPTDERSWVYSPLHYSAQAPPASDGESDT

Chain of NEK10 (Q6ZWH5 whole entry): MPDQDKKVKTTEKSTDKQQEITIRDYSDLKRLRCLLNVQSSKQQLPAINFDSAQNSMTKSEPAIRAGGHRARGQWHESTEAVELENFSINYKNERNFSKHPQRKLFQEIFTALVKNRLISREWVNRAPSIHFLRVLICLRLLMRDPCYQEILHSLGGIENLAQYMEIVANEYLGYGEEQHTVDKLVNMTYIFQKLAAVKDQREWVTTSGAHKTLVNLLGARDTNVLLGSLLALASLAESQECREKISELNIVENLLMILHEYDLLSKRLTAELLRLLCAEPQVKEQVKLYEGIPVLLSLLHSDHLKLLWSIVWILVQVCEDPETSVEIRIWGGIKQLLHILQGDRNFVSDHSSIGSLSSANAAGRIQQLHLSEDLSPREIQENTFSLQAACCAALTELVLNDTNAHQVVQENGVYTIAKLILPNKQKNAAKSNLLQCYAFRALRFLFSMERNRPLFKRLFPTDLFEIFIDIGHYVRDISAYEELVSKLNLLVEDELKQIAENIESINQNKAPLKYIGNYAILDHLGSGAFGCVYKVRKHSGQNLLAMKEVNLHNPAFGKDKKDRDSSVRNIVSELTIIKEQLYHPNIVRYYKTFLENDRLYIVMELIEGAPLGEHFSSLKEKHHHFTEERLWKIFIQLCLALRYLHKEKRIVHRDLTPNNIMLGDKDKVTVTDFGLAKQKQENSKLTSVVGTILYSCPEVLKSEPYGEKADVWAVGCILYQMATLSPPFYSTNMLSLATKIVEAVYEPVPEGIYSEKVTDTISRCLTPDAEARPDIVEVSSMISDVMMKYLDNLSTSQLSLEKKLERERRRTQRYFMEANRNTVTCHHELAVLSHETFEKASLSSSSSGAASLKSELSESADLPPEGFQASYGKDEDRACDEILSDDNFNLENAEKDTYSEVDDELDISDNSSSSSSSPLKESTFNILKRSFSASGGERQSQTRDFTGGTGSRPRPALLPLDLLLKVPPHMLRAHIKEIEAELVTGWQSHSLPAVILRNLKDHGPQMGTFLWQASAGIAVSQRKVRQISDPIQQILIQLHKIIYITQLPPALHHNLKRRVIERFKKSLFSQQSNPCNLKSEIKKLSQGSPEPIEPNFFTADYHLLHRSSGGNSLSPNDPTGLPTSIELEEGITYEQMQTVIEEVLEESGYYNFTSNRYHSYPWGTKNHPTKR

Row | Kd (FLT3 (D835Y)) [nM] | Kd (FLT3 (ITD)) [nM] | Kd (FLT3 (ITD, F691L)) [nM] | Kd (FLT3 (N841I)) [nM] | solubility at 18 h (Solubility) [µM] | Kd (NEK10) [nM] | Kd (PIP5K1C) [nM] | SMILES
1 | > 10000 | > 10000 | > 10000 | > 10000 |  |  |  | CC(C)Nc1ccnc(Nc2ccccc2-c2ccccc2)n1 [Compound 6a, N^2-([1,1′-Biphenyl]-2-yl)-N^4-isopropylpyrimidine-2,4-diamine]
2 | 0.59 | 1.4 | 11 | 11 | 26.4 ± 17 (≈ 8.06 µg/mL) | 2000 | 1300 | CC(C)Nc1ccnc(Nc2cccc(-c3cccnc3)c2)n1 [Compound 5e, N^4-Isopropyl-N^2-(3-(pyridin-3-yl)phenyl)pyrimidine-2,4-diamine]
3 | 13 | 31 | 270 | 48 | 0.4 ± 0.9 (≈ 0.138 µg/mL) | 410 | 610 | c1cncc(-c2cccc(Nc3nccc(NC4CCCCC4)n3)c2)c1 [Compound 1, N^4-Cyclohexyl-N^2-(3-(pyridin-3-yl)phenyl)pyrimidine-2,4-diamine]
